Laboratory results reported in US9163049B2, “Medicament comprising a reducing alkyl-sugar monomer for the treatment of inflammatory disorders” (PIERRE FABRE DERMO-COSMETIQUE, priority 2003, dated 2015).

Tests used:
[1] = tested on: HBrMEC; assay: Adhesion of lymphocytes on non-activated endothelial cells HBrMEC; assay type: cell-based
Description: (§1) Adhesion is carried out in vitro under static conditions. The endothelial cells were cultured in wells in order to obtain a monolayer. The cells were pretreated for 5 hours in the presence or absence of alkyl-rhamnosides. As dodecyl-rhamnoside required a content of 0.1% by volume to be soluble in the culture media, a control containing 0.1% glycerol was also analyzed.
(§2) The suspension of labeled lymphocytes was at a concentration making it possible to obtain a ratio of 5 lymphocytes per endothelial cell. Adhesion was carried out for 30 minutes at ambient temperature. The label binds irreversibly to the lipids of the plasma membrane of the cells without affecting the biological properties of the membrane or cellular viability.
(§3) The adhesion of the lymphocytes on the endothelial cells was quantified by flow cytometry.

[2] = tested on: proliferation of lymphocytes in auricular lymphatic ganglia; conditions: in vivo
Source text: (§7) This test determines the sensitizing capacity of the test substance by measuring the proliferation of lymphocytes in auricular lymphatic ganglia. The proliferation of lymphocytes will be measured by determining the incorporation of tritiated methyl thymidine.

[3] = tested on: PGE2 released by the NHK stimulated by PMA; assay: Assay of the PGE2 released by the NHK stimulated by PMA; assay type: cell-based, human; conditions: for Percentage of inhibition of the release of PGE2: NHK + PMA 1 ng/ml, 24 hours
Description: Assay of the PGE2 released by the NHK stimulated by PMA.
Alkyl-rhamnosides were evaluated as an inhibitor of the release of PGE2 in cellular supernatants. These products were placed in the presence of the NHK at the same time as the PMA at 1 ng/ml. Each condition tested was evaluated for stimulation on 4 wells of NHK.
The results summarized in Table 5 below represent the mean PGE2 concentration values (pg/ml), after 24 hours of treatment, given in each of the cellular supernatants, stimulated or not, and reported in a quantity of cells expressed in μg.

[4] = tested on: keratinocytes; assay: Toxicity test: viability of keratinocytes; assay type: cell-based; conditions: for % viability: compared to control 100%
Source text: (§4) MTT [3-(4,5-[…])-2,5-diphenyl tetrazolium bromide] Reduction Technique (Sold by Sigma).
(§5) This technique corresponds to a colorimetric test allowing quantification of living, metabolically active cells in a non-radioactive manner. MTT is a cationic molecule which is bound to the membranes of mitochondria in a potential-dependant fashion. On the level of the mitochondria, MTT will be reduced to formazan blue by mitochondrial dehydrogenase. The living cells are thus colored blue, in contrast with the dead cells which remain transparent. The measure of viability is then carried out by measurement of the optical density using an automatic reader.
XTT Tetrazolium Salt Reduction Technique.
This is a technique allowing quantification of cellular proliferation and of the number of living (metabolically active) cells, without the incorporation of radioactive isotopes. XTT, yellow in color, is a cationic molecule which is bound to the membranes of mitochondria in a potential-dependant fashion, as does MTT.
On the level of the mitochondria, XTT will be reduced to formazan (orange) by mitochondrial tetrazolium reductase. […] Indeed, the reduction product is soluble within the cell. The method is thus faster. Living cells, in the absence and presence of a treatment become colored, in contrast with dead cells which remain colorless. The level of formazan product is detected with the spectrophotometer at a wavelength of 450 nm and is directly proportional to the number of metabolically active cells.
Keratinocytes were isolated and placed in culture from human skin biopsies arising from anonymous donors following a plastic surgery procedure. Measurements of optical density (absorbance) of the 4 wells treated with the same product concentration were averaged. This average was compared with the average of the measurements obtained for the 4 control wells (Student's t-test comparison of means significant difference at 95% if p<0.05 and 99% if p<0.01).
The viabilities of the treated cells are expressed as a percentage compared to the control (untreated cells) of 100% (OD treated/OD control×100).

[5] = tested on: HAPEC; assay: Adhesion of lymphocytes on non-activated endothelial cells HAPEC; assay type: cell-based
Description: as §1, §2, §3

[6] = tested on: HSkMEC activated with TNF-α; assay: Adhesion between lymphocytes and TNF-α activated endothelial cells (HSkMEC); assay type: cell-based; conditions: for Control/TNF ratio / adhesion between lymphocytes and endothelial cells, TNF: HSkMEC; for adhesion between lymphocytes and endothelial cells, TNF: control in medium = 1.000
Description: (§6) The influence of alkyl-rhamnosides on adhesion between lymphocytes and […] endothelial cells, in particular the line of endothelial cells arising from the skin (HSkMEC), was evaluated. These cells were placed in the presence of a strong activator, TNF-α.
as §1, §2, §3
The results of adhesion between lymphocytes and activated endothelial cells, summarized in Table 5 below, arise from groups of three adhesion tests.

[7] = tested on: HMLNEC; assay: Adhesion of lymphocytes on non-activated endothelial cells HMLNEC; assay type: cell-based
Description: as §1, §2, §3

[8] = tested on: proliferation of lymphocytes in auricular lymphatic ganglia; assay: Sensitizing capacity by the LLNA method (local lymph node assay)
Source text: as §7

[9] = tested on: endothelial cells (appendix, brain microvascular, mesenteric lymphatic ganglia, peripheral lymphatic ganglia, skin microvascular); assay: Cytotoxicity test (MTT) on endothelial cell lines; assay type: cell-based
Source text: as §4, §5
Endothelial cells were placed in culture, immortalized and stabilized in their phenotype. The cell lines studied were appendix endothelial cells, brain microvascular endothelial cells, mesenteric lymphatic ganglia endothelial cells, peripheral lymphatic ganglia endothelial cells and skin microvascular endothelial cells.
The cytotoxicity test was carried out by means of a biochemical test on the transformation of a tetrazolium salt, MTT. […] Viability is indeed always greater than 85%, and this is true for all of the cells lines studied.

[10] = tested on: HSkMEC; assay: Adhesion of lymphocytes on non-activated endothelial cells HSkMEC; assay type: cell-based; conditions: for adhesion between lymphocytes and endothelial cells, Medium: HSkMEC, Medium (no TNF), control = 1.000
Description: as §6, §1, §2, §3

[11] = tested on: HPLNEC.B3; assay: Adhesion of lymphocytes on non-activated endothelial cells HPLNEC.B3; assay type: cell-based
Description: as §1, §2, §3

[12] = tested on: reconstituted epidermis; assay: Cutaneous irritant potential on reconstituted epidermis; assay type: cell-based; conditions: Rh-C5 concentration 30%, Triton 4%
Source text: The evaluation of cutaneous irritant potential on reconstituted epidermis is an alternative to animal experimentation. The principle is based on the evaluation of the irritant potential of the product tested by: • the study of cytotoxicity by quantification of the release of lactate dehydrogenase (LDH) and by reduction of MTT to […], • the study of inflammation markers by quantification of the release of interleukins and IL8.

CCCCCOC1O[C@@H](C)[C@H](O)[C@@H](O)[C@H]1O (stereo partly shown) [Rh-C5, pentyl-rhamnoside]
effect on adhesion of lymphocytes ([1]; 1.1 mM): no effect or a very slight effect | Conclusion (sensitizing capacity) [2]: Not sensitizing | sensitizing capacity [2]: not sensitizing | Percentage of inhibition of the release of PGE2 ([3]; 0.02 mg/ml): 29% | Percentage of inhibition of the release of PGE2 ([3]; 0.05 mg/ml): 61% | Percentage of inhibition of the release of PGE2 ([3]; 0.1 mg/ml): 64% | Percentage of inhibition of the release of PGE2 ([3]; 1 mg/ml): 89% | concentrations at which cytotoxicity is exhibited [4]: greater than 2 mg/ml | % viability ([4]; 0.1 mg/ml): 94% | % viability ([4]; 1 mg/ml): 74% | % viability ([4]; 2 mg/ml): 53% | % viability ([4]; 5 mg/ml): 40% | effect on adhesion of lymphocytes ([5]; 1.1 mM): no effect or a very slight effect | Control/TNF ratio [6]: 1.6 | adhesion between lymphocytes and endothelial cells, TNF [6]: 3.100 | increase in adhesion of lymphocytes compared to rhamnose ([7]; 1.1 mM): 96.7% | DPM/Ganglion ([8]; Concentration 1: 3%): 1240.2 DPM/Ganglion | RATIO ([8]; Concentration 1: 3%): 0.7 | DPM/Ganglion ([8]; Concentration 2: 15%): 1041.1 DPM/Ganglion | RATIO ([8]; Concentration 2: 15%): 0.6 | DPM/Ganglion ([8]; Concentration 3: 30%): 797.3 DPM/Ganglion | RATIO ([8]; Concentration 3: 30%): 0.5 | Viability ([9]; all of the cells lines studied): greater than 85% | toxicity ([9]; endothelial cell lines): no toxicity | inhibiting effect on the adhesion of lymphocytes compared to rhamnose ([10]; 1.1 mM, non-activated HSkMEC): 37.3% | adhesion between lymphocytes and endothelial cells, Medium [10]: 1.900 | increase in adhesion of lymphocytes ([11]; 1.1 mM): 37.9%

CCCCCCCCCCCCOC1O[C@@H](C)[C@H](O)[C@@H](O)[C@H]1O (stereo partly shown) [dodecyl-rhamnoside]
effect on adhesion of lymphocytes ([1]; 1.5 mM): no effect | increase in adhesion of lymphocytes ([5]; 1.5 mM): 44.1% | inhibition of adhesion ([6]; 1.5 μM, endothelial cells): 63% | Control/TNF ratio [6]: 0.59 | adhesion between lymphocytes and endothelial cells, TNF [6]: 1.900 | effect on adhesion of lymphocytes ([7]; 1.5 mM): no effect | decrease of the adhesion of lymphocytes ([10]; 1.5 mM, non-activated HSkMEC): 34.2% | adhesion between lymphocytes and endothelial cells, Medium [10]: 3.200 | effect on adhesion of lymphocytes ([11]; 1.5 mM): no effect

CCCCCCCCCCCOC1O[C@@H](C)[C@H](O)[C@@H](O)[C@H]1O (stereo partly shown) [Rh-C11, undecyl-rhamnoside]
Percentage of inhibition of the release of PGE2 ([3]; 0.01 mg/ml): 28% | Percentage of inhibition of the release of PGE2 ([3]; 0.02 mg/ml): 28% | activity (inhibition of PGE2 release) ([3]; in the range of 20 μg/ml): activity comparable to pentyl-rhamnoside | % viability ([4]; 10 μg/ml): 81% | % viability ([4]; 100 μg/ml): 17% | % viability ([4]; 250 μg/ml): 11% | % viability ([4]; 500 μg/ml): 30%

octadecyl-rhamnose [Rh-C18]
Percentage of inhibition of the release of PGE2 ([3]; 0.02 mg/ml): 2%

C[C@H](O)[C@H](O)[C@@H](O)[C@@H](O)C=O [Rhamnose, rhamnose, reference compound]
% viability ([4]; 0.001 mg/ml): 95% | % viability ([4]; 0.01 mg/ml): 100% | % viability ([4]; 0.1 mg/ml): 98% | % viability ([4]; 1 mg/ml): 104% | cytotoxicity ([4]; even for the highest concentrations): does not exhibit cytotoxicity | Control/TNF ratio [6]: 1.5 | adhesion between lymphocytes and endothelial cells, TNF [6]: 2.450 | adhesion between lymphocytes and endothelial cells, Medium [10]: 1.630

Triton [reference compound]
IL1α ratio ([12]; 24 hours of application): 36.0 | IL8 ratio ([12]; 24 hours of application): 3.7 | LDH ratio ([12]; 24 hours of application): 124.7 | MTT % viability ([12]; 24 hours of application): 3.0% | IL1α ratio ([12]; 72 hours of application): 7.2 | IL8 ratio ([12]; 72 hours of application): 0.9 | LDH ratio ([12]; 72 hours of application): 77.3 | MTT % viability ([12]; 72 hours of application): 1.5% | Classification (cutaneous irritant potential) [12]: irritant
